According to patent US8198267B2, “Substituted oxazolidinones and their use” (Bayer Intellectual Property GmbH, priority 2007, dated 2012):

Tests used:
factor Xa = target: T1, factor Xa (Homo sapiens, UniProt P00742); experiment: Factor Xa-inhibitory activity of the potential inhibitors in plasma samples; format: biochemical; conditions: citrate plasma (Octapharma); factor X activated by rattlesnake toxin (RVV); ChromozymX chromogenic substrate, 405 nm
T1 construct: tissue Octapharma; host or cells: citrate plasma
Description: a.4) Determination of the Factor Xa-Inhibitory Activity of the Potential Inhibitors in Plasma Samples
To determine the inhibition of factor Xa in plasma samples, the factor X present in plasma is activated by a protease from rattlesnake toxin. The factor Xa activity or its inhibition by potential inhibitors is then measured by addition of a chromogenic substrate.
Various concentrations of the substances to be tested are dissolved in dimethyl sulfoxide and diluted with an aqueous refludan solution (10 μg/ml). In clear 96-well plates having a flat bottom, 30 μl of citrate plasma (Octapharma) are mixed with 10 μl of the substance dilution. Then, either 20 μl of a solution of a rattlesnake toxin (Russel viper venom (RVV); RVV reagent: Pentapharm 121-06, final concentration 0.6 mU) in an aqueous calcium chloride solution buffer (final concentration of calcium chloride 0.05 M) or 20 μl of the aqueous calcium chloride solution (final concentration of calcium chloride 0.05 M) without RVV reagent (as reference for an unstimulated sample) are added. After addition of 20 μl of ChromozymX substrate (final concentration 1.6 mmol/l, Bachem L-1565, diluted in water) the samples are measured in a SpectraFluor Reader using a measurement filter of 405 nm each minute over a period of 20 minutes. The IC50 value is determined when about 70% of the maximum signal is reached (about 12 min).

thrombin = thrombin (Homo sapiens, UniProt P00734); experiment: Thrombin-inhibitory activity of the potential inhibitors in plasma samples; format: biochemical; conditions: citrate plasma (Octapharma); ecarin stimulation; fluorogenic thrombin substrate, 360/465 nm
Description: a.5) Determination of the Thrombin-Inhibitory Activity of the Potential Inhibitors in Plasma Samples
Various concentrations of the substances to be tested are dissolved in dimethyl sulfoxide and diluted with water.

T1 sequence (P00742 235-488 limits assumed): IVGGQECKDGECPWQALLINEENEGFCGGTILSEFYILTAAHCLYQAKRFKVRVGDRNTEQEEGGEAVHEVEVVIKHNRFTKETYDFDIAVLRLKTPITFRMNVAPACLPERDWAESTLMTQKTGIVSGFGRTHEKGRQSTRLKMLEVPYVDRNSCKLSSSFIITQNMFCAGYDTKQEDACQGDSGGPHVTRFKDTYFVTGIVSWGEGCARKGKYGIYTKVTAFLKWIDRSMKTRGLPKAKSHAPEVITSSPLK
T1 sequence (P00742 41-179 limits assumed): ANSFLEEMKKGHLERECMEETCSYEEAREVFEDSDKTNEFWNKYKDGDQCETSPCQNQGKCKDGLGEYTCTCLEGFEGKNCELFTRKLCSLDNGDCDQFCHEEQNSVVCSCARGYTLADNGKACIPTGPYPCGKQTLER

Row | Compound | IC50 (factor Xa) [nM] | IC50 (thrombin) [nM]
1 | CCOc1cccn(-c2ccc(N3C[C@H](CNC(=O)c4ccc(Cl)s4)OC3=O)cc2C)c1=O [Example 4, 5-Chloro-N-({(5S)-3-[4-(3-ethoxy-2-oxopyridin-1(2H)-yl)-3-methylphenyl]-2-oxo-1,3-oxazolidin-5-yl}methyl)thiophene-2-carboxamide] | 201 | 286
2 | CC(=O)COc1cccn(-c2ccc(N3C[C@H](CNC(=O)c4ccc(Cl)s4)OC3=O)cc2C)c1=O [Example 7, 5-Chloro-N-[((5S)-3-{3-methyl-4-[2-oxo-3-(2-oxopropoxy)pyridin-1(2H)-yl]phenyl}-2-oxo-1,3-oxazolidin-5-yl)methyl]thiophene-2-carboxamide] | 206 | 277
3 | Cc1cc(N2C[C@H](CNC(=O)c3ccc(Cl)s3)OC2=O)ccc1-n1cccc(OCC(C)(C)O)c1=O [Example 9, 5-Chloro-N-[((5S)-3-{4-[3-(2-hydroxy-2-methylpropoxy)-2-oxopyridin-1(2H)-yl]-3-methylphenyl}-2-oxo-1,3-oxazolidin-5-yl)methyl]thiophene-2-carboxamide] | 149 | 247
4 | Cc1cc(N2C[C@H](CNC(=O)c3ccc(Cl)s3)OC2=O)cc(C)c1-n1cccc(OCCO)c1=O [Example 16, 5-Chloro-N-{[(5S)-3-{4-[3-(2-hydroxyethoxy)-2-oxopyridin-1(2H)-yl]-3,5-dimethylphenyl}-2-oxo-1,3-oxazolidin-5-yl]methyl}thiophene-2-carboxamide] | 213 | 14
5 | CCOc1nccn(-c2ccc(N3C[C@H](CNC(=O)c4ccc(Cl)s4)OC3=O)cc2C)c1=O [Example 18, 5-Chloro-N-({(5S)-3-[4-(3-ethoxy-2-oxopyrazin-1(2H)-yl)-3-methylphenyl]-2-oxo-1,3-oxazolidin-5-yl}methyl)thiophene-2-carboxamide] | 319 | 502
6 | CCCc1cc(N2C[C@H](CNC(=O)c3ccc(Cl)s3)OC2=O)ccc1-n1ccccc1=O [Example 19] | 361 | 8
7 | COCc1cc(N2C[C@H](CNC(=O)c3ccc(Cl)s3)OC2=O)ccc1N1CCCCC1=O [Example 27, 5-Chloro-N-({(5S)-3-[3-(methoxymethyl)-4-(2-oxopiperidin-1-yl)phenyl]-2-oxo-1,3-oxazolidin-5-yl}methyl)thiophene-2-carboxamide] | 39 | 54
8 | O=C(NC[C@H]1CN(c2ccc(N3CCOCCC3=O)c(C3CC3)c2)C(=O)O1)c1ccc(Cl)s1 [Example 30, 5-Chloro-N-({(5S)-3-[3-cyclopropyl-4-(5-oxo-1,4-oxazepan-4-yl)phenyl]-2-oxo-1,3-oxazolidin-5-yl}methyl)thiophene-2-carboxamide] | 25 | 34
9 | CC(C)c1cc(N2C[C@H](CNC(=O)c3ccc(Cl)s3)OC2=O)ccc1N1CCCNC1=O [Example 32, 5-Chloro-N-({(5S)-3-[3-isopropyl-4-(2-oxotetrahydropyrimidin-1(2H)-yl)phenyl]-2-oxo-1,3-oxazolidin-5-yl}methyl)thiophene-2-carboxamide] | 70 | 151
10 | COc1cc(N2C[C@H](CNC(=O)c3ccc(Cl)s3)OC2=O)ccc1N1CCCN(C)C1=O [Example 35, 5-Chloro-N-({(5S)-3-[3-methoxy-4-(3-methyl-2-oxotetrahydropyrimidin-1(2H)-yl)phenyl]-2-oxo-1,3-oxazolidin-5-yl}methyl)thiophene-2-carboxamide] | 552 | 390
11 | O=C(NC[C@H]1CN(c2ccc(N3CCCN(CCO)C3=O)c(C(F)(F)F)c2)C(=O)O1)c1ccc(Cl)s1 [Example 38, 5-Chloro-N-{[(5S)-3-{4-[3-(2-hydroxyethyl)-2-oxotetrahydropyrimidin-1(2H)-yl]-3-(trifluoro-methyl)phenyl}-2-oxo-1,3-oxazolidin-5-yl]methyl}thiophene-2-carboxamide] | 252 | 
